2 compounds from patent US20160361291A1, “METHODS FOR INCREASING SKELETAL MUSCLE PROTEIN SYNTHESIS USING GREEN TEA EXTRACT” (ABBOTT LABORATORIES, priority 2013, published 2016) can be followed below.

Assay [1] deals with C2C12 muscle myotubes. Nature of the assay: Muscle protein synthesis in C2C12 myotubes under TNF-α stress (radiolabeled phenylalanine incorporation). Format: cell-based, mouse. As to conditions: for protein synthesis as compared to the control: synthesis measured over following 4 hours. The protocol: The role of EGCg, in the form of […]® brand green tea extract that contains about 95% EGCg (available from DSM of the Netherlands), in stimulating muscle protein synthesis was evaluated in an in vitro cell-based assay using mouse C2C12 muscle myotubes. This assay measured the incorporation of radiolabeled phenylalanine into myotubes in response to various stimuli. C2C12 myoblasts passaged in FCS DMEM (Fetal Calf Serum Dulbecco's Modified Eagle's Medium) were differentiated to myotubes in HS DMEM (Horse Serum Dulbecco's Modified Eagle's Medium). The myotubes were labeled for 24 hours with L-[2,6-3H] phenylalanine prior to compound experimentation. They were then incubated with TNF-α (50 ng/ml) for 2 hours in the absence, or presence of 10 μM or 50 μM of EGCg, and protein synthesis was measured over the following 4 hours.

Assay [2] concerns muscle fiber. The assay is described as follows: Muscle fiber cross sectional area of aged rats, 8-week diet study. Format: in vivo, Sprague Dawley rats. As to conditions: 200 mg/kg body weight EGCg per day in diet, 8 weeks; p=0.06. Here is the method: (§1) Each of 12 aged Sprague Dawley rats (SD) rats (20 months) were chronically fed the following diets ad libitum for 8 weeks to evaluate the effects on the progression of sarcopenia in the rats:
(§2) Control diet: AIN-93M (AIN-93M diets are well known balanced diets for rodents); and
(§3) Test diet: AIN-93M+200 mg/kg body weight of EGCg.
(§4) The AIN-93M diet was supplemented with EGCG (in the form of TEAVIGO® brand green tea extract) at a concentration of 5 gm/kg diet to deliver a dose of 200 mg/kg body weight of EGCg per day to the SD rat (approximate body weight 500 gm, approximate food intake=20 gm/d) in the test diet.
(§5) This increased activation was associated with increases in gastrocnemius muscle wet weight and muscle fiber cross sectional area, as shown respectively in FIGS. 3 and 4. Excised gastrocnemius muscles were weighed at the end of the 8 weeks. […] With respect to the muscle fiber cross sectional area, 8-micron muscle sections from the SD rats were dissected, mounted, and stained using hematoxylin & eosin at the end of the 8 week period. Approximately 400 fibers were measured per sample. The results are shown in FIG. 4, in which the SD rats fed the test diet (EGCg treatment) have higher cross sectional areas as compared to that of the SD rats fed the control diet (p=0.06).

For assay [3], the system named is gastrocnemius muscle. Nature of the assay: Gastrocnemius muscle wet weight of aged rats, 8-week diet study. As to conditions: 200 mg/kg body weight EGCg per day in diet, 8 weeks, rats aged 20 months. Type of assay: in vivo, Sprague Dawley rats. Here is the method: as §1, §2, §3, §4, §5
Assay [4] deals with muscle atrophy f-box (MAFbx). The assay is described as follows: Western blot of MAFbx, 8-week diet study. Format: in vivo, Sprague Dawley rats. To be noted: 200 mg/kg body weight EGCg per day in diet, 8 weeks. The protocol:
as §1, §2, §3, §4
(§6) Conversely, markers of muscle atrophy such as the 19S regulatory and 20S core particle ubiquitin proteasome subunits, MuRF1, and MAFbx were lower at the end of the 8 weeks in those SD rats fed the test diet (EGCg treatment) as compared to those fed the control diet. […] The components of the Ubiquitin Proteasome Pathway (UPP) as shown in FIGS. 5-8 were measured by western blotting in rats treated with either the test (EGCg treatment) or the control diets.

The test system of assay [5] is muscle ring finger protein 1 (MuRF1). Nature of the assay: Western blot of MuRF1, 8-week diet study. Format: in vivo, Sprague Dawley rats. As to conditions: 200 mg/kg body weight EGCg per day in diet, 8 weeks. The protocol: as §1, §2, §3, §4, §6
Assay [6] concerns mTOR. The assay is described as follows: mTOR activation in skeletal muscle of aged rats, 8-week diet study. Format: in vivo, Sprague Dawley rats. As to conditions: 200 mg/kg body weight EGCg per day in AIN-93M diet, 8 weeks, rats aged 20 months; p<0.05. Here is the method: as §1, §2, §3, §4
Assay [7] has as its system 20S core particle ubiquitin proteasome subunits. Nature of the assay: Western blot of 20S core particle ubiquitin proteasome subunits, 8-week diet study. Format: in vivo, Sprague Dawley rats. To be noted: 200 mg/kg body weight EGCg per day in diet, 8 weeks. The protocol:
as §1, §2, §3, §4, §6

The test system of assay [8] is 19S regulatory particle ubiquitin proteasome subunits. Nature of the assay: Western blot of 19S regulatory particle ubiquitin proteasome subunits, 8-week diet study. Format: in vivo, Sprague Dawley rats. To be noted: 200 mg/kg body weight EGCg per day in diet, 8 weeks. Here is the method: as §1, §2, §3, §4, §6

“tumor necrosis factor alpha [TNFα, reference compound]”: the “drop in protein synthesis as compared to the control” value in assay [1] (TNF-α alone, 50 ng/ml, 2 hours, p<0.05) amounted to 16%.

With `O=C(O[C@@H]1Cc2c(O)cc(O)cc2O[C@@H]1c1cc(O)c(O)c(O)c1)c1cc(O)c(O)c(O)c1` [EGCg, epigallocatechin gallate], the “muscle fiber cross sectional area vs control diet” value in assay [2] was “higher”. For the same compound, the “greater muscle mass in excised gastrocnemius muscle vs control diet” value in assay [3] was “approximately 5%”. The “MAFbx expression vs control diet” value in assay [4] is given as “lower”. Also, the “MuRF1 expression vs control diet” value in assay [5] is recorded as “lower”. The “protein synthesis as compared to the control” value in assay [1] (10 μM EGCg plus TNF-α (50 ng/ml, 2 hours), p<0.05) was 104%; in assay [1] (50 μM EGCg plus TNF-α (50 ng/ml, 2 hours), p<0.01), 109%. In assay [6], the “increase in intramuscular phosphorylated mTOR expression (mTOR activation) vs control diet” value was determined as 53%. Besides, the “20S core particle ubiquitin proteasome subunit expression vs control diet” value in assay [7] is reported as “lower”. Moreover, in assay [8], the “19S regulatory particle ubiquitin proteasome subunit expression vs control diet” value is recorded as “lower”.
